Laboratory results taken from US7943376B2, “Platelet derived growth factor (PDGF)-derived neurospheres define a novel class of progenitor cells” (Stem Cell Therapuetics Inc., priority 2001, dated 2011).
Several values for one entry are separate records, joined by “and”; a condition that tells them apart may be missing. Equal values may be shown once. Entries after “also recorded” stand apart in the source; their conditions may differ.

Experiments:
[1] = test system: medial ganglionic eminence (MGE); assay: Neurosphere formation using medial ganglionic eminence; assay type: cell-based, mice; details: MGE from E14 embryos, cultured as in Example 1 with EGF or PDGF; n = 2 or 3
Description: (§1) In order to locate the cells that give rise to the novel progenitor cells described herein, we dissected ganglionic eminence to two portions. Thus, the ganglionic eminence was isolated from E14 embryos of mice, and the medial ganglionic eminence (MGE) was separated from the lateral ganglionic eminence (LGE). MGE and LGE were then dissociated and cultured as described in Example 1. The resulting primary culture was exposed to EGF or PDGF in addition to the defined culture media, and the number of neurospheres were counted and summarized below.

[2] = test system: brain tissue prepared as described in Example 1 (E14 striatum); assay: Combined effect of PDGF and EGF on number of neurospheres formed; assay type: cell-based, mouse; details: cultured in PDGF, EGF, or the combination of PDGF and EGF
Protocol: (§2) E14 striatum was mechanically dissociated as previously described (for example see U.S. Pat. Nos. 5,750,376; 5,980,885; or 5,851,832) and plated at 10,000 cells/ml in 6 well plates in defined culture media plus 100 ng/ml of PDGF-AA (Peprotech). The composition of defined culture media is as follows: • DMEM/F12 (1:1) • glucose (0.6%) • glutamine (2 mM) • sodium bicarbonate (3 mM) • HEPES (5 mM) • insulin (25 μg/ml) • transferrin (100 μg/ml) • progesterone (20 nM) • putrescine (60 μM) • selenium chloride (30 nM)
We also tested the effect of combining PDGF and EGF on the number of neurospheres formed. Thus, brain tissue was prepared as described in Example 1 and cultured in the presence of PDGF, EGF, or the combination of PDGF and EGF.

[3] = test system: lateral ganglionic eminence (LGE); assay: Neurosphere formation using lateral ganglionic eminence; assay type: cell-based, mice; details: LGE from E14 embryos, cultured as in Example 1 with EGF or PDGF; n = 2 or 3
Description: as §1

primary EGF neurospheres = assay: Secondary neurosphere formation from dissociated EGF-derived primary neurospheres; assay type: cell-based, mouse; details: single primary EGF-generated neurospheres dissociated in EGF- or PDGF-containing media; eight wells per condition; Exp. #1 and #2
Protocol: To determine if the neurospheres derived in EGF-containing media have different proliferation properties as those of PDGF-generated neurospheres, primary EGF neurospheres were generated from embryonic day 14 striatum by culturing dissociated striatum in EGF (20 ng/ml) containing define culture media at a cell density of 200,000 cells/ml. Subsequently, individual neurospheres were isolated, placed in individual wells in either PDGF or EGF containing media, and dissociated mechanically. The numbers of secondary neurospheres that came from a single primary EGF-generated neurospheres are given below (eight wells for each condition; numbers indicate average number of secondary neurospheres/well): […]

[4] = test system: PDGF primary neurospheres; assay: Secondary neurosphere formation from dissociated PDGF-derived primary neurospheres; assay type: cell-based, mouse; details: single PDGF primary neurospheres dissociated in 20 ng/ml EGF or 100 ng/ml PDGF-AA; 7 or more days in vitro
Protocol: Single PDGF primary neurospheres prepared as described in Example 1 were transferred into 96-well plates and mechanically dissociated in either the presence of 20 ng/ml EGF (Peprotech) or 100 ng/ml PDGF-AA. The formation of secondary neurospheres was assayed after 7 or more days in culture in vitro.

E14 striatum = assay: PDGF-induced production of primary neurospheres from dissociated E14 striatum; assay type: cell-based, mouse
Protocol: as §2
Neurospheres, which are clusters of neural cells derived from single cells, formed after 7 days of culture in vitro (DIV). Six wells per experiment were counted for neurosphere production and the results are shown below:
In control experiments, wherein PDGF was omitted from the culture media, no neurospheres formed. Therefore, PDGF is capable of inducing neurosphere production from single precursor cells in the absence of serum, EGF, TGF-α and FGF-2.

EGF-derived neurospheres = assay: Effect of Tyrphostin AG 1296 on primary neurosphere formation in response to EGF; assay type: cell-based, mouse
Protocol: (§3) In order to determine if the PDGF-induced primary neurosphere formation is mediated by the PDGF receptor kinase, a selective PDGF receptor kinase inhibitor, Tyrphostin AG 1296, was added to neurosphere culture. Primary cells were cultured at 10,000 cells/ml in the presence of either EGF or PDGF, plus 5 μM of Tyrphostin AG 1296 (Sigma) or DMSO in the same volume as Tyrphostin (DMSO being the solvent for Tyrphostin). Results are expressed below as the percentage of neurospheres formed, with the number of PDGF- or EGF-derived neurospheres arbitrarily set at 100%, respectively.

[5] = test system: PDGF-derived neurospheres; assay: Effect of Tyrphostin AG 1296 on primary neurosphere formation in response to PDGF; assay type: cell-based, mouse
Protocol: as §3

| Substance | Average number of neurospheres [1] | Average number of neurospheres [2] | Average number of neurospheres [3] | average number of secondary neurospheres/well (primary EGF neurospheres) | Average # of secondary neurospheres formed/well [4] | Average number of neurospheres produced/well, average of experiments 1-6 (E14 striatum; 100 ng/ml PDGF-AA, 10,000 cells/ml, 7 DIV, mean over six experiments) | Average number of neurospheres produced/well (E14 striatum; 100 ng/ml PDGF-AA, 10,000 cells/ml, defined media, 7 DIV, single experiments, six wells each) | Average number of neurospheres produced/well (E14 striatum; as E1, experiments marked *: PDGF used immediately after reconstitution in defined culture media) | Potency when used immediately after reconstitution in defined culture media (E14 striatum; relative to PDGF not used immediately after reconstitution) | Effect on EGF-derived neurosphere formation (in words) (EGF-derived neurospheres; 5 μM Tyrphostin AG 1296) | percentage of neurospheres formed (EGF-derived neurospheres; EGF plus 5 μM Tyrphostin AG 1296, 10,000 cells/ml, EGF alone set at 100%, n = 3 to 9) [%] | Effect on primary neurosphere formation induced by PDGF (in words) ([5]; 5 μM Tyrphostin AG 1296) | percentage of neurospheres formed ([5]; PDGF plus 5 μM Tyrphostin AG 1296, 10,000 cells/ml, PDGF alone set at 100%, n = 3 to 9) [%] |
| --- | --- | --- | --- | --- | --- | --- | --- | --- | --- | --- | --- | --- | --- |
| EGF: epidermal growth factor (Peprotech), used at 20 ng/ml | 16.9 ± 2.87 | 80.5 ± 8.57 | 9.64 ± 1.59 | 27 and 14.1 | 3.12 ± 1.64 (n = 3) |  |  |  |  |  |  |  |  |
| PDGF: platelet derived growth factor; PDGF-AA (Peprotech) used at 100 ng/ml | 10.22 ± 1.11 | 73.36 ± 7.13 | 1.27 ± 0.45 | 21.5 and 26.7 | 0 | average = 17.7 ± 5.0 | 14.5 and 9.2 and 8.6 and 7.7 | 34.3* and 32.5* | *PDGF appears to be approximately 3 fold more potent when used immediately after reconstitution in defined culture media. |  |  |  |  |
| Tyrphostin AG 1296 |  |  |  |  |  |  |  |  |  | inhibited by Tyrphostin AG 1296 to some extent | 55 | inhibited; also recorded: almost abolished | 10 |
